Reference: BigSolDB 2.1

c1ccc(-c2cc3ccccc3[nH]2)cc1
Conditions	solubility (mole fraction)
in 1,2-dichloroethane, 296.95 K	0.0186
in 1,2-dichloroethane, 302.45 K	0.0236
in 1,2-dichloroethane, 308.55 K	0.0285
in 1,2-dichloroethane, 313.15 K	0.0325
in 1,2-dichloroethane, 318.25 K	0.0373
in 1,2-dichloroethane, 323.25 K	0.0422
in 1,2-dichloroethane, 329.05 K	0.0498
in 1,2-dichloroethane, 334.05 K	0.0575
in 1,2-dichloroethane, 338.55 K	0.0666
in 1,4-dioxane, 289.05 K	0.0403
in 1,4-dioxane, 293.15 K	0.0507
in 1,4-dioxane, 299.15 K	0.0625
in 1,4-dioxane, 303.95 K	0.0735
in 1,4-dioxane, 308.95 K	0.0903
in 1,4-dioxane, 313.65 K	0.114
in 1,4-dioxane, 318.65 K	0.145
in 1,4-dioxane, 324.05 K	0.172
in 1,4-dioxane, 329.35 K	0.201
in 1,4-dioxane, 334.15 K	0.239
in MTBE, 289.05 K	0.0337
in MTBE, 293.15 K	0.0351
in MTBE, 299.15 K	0.0383
in MTBE, 303.95 K	0.0406
in MTBE, 308.95 K	0.0428
in MTBE, 313.65 K	0.0452
in MTBE, 318.65 K	0.049
in MTBE, 324.05 K	0.0522
in MTBE, 329.35 K	0.0558
in MTBE, 334.15 K	0.0596
in THF, 289.05 K	0.187
in THF, 293.15 K	0.194
in THF, 299.15 K	0.203
in THF, 303.95 K	0.211
in THF, 308.95 K	0.218
in THF, 313.65 K	0.225
in THF, 318.65 K	0.232
in THF, 324.05 K	0.24
in THF, 329.35 K	0.248
in THF, 334.15 K	0.256
in acetone, 289.05 K	0.0951
in acetone, 293.15 K	0.106
in acetone, 299.15 K	0.111
in acetone, 303.95 K	0.122
in acetone, 308.95 K	0.132
in acetone, 313.65 K	0.142
in acetone, 318.65 K	0.15
in acetone, 324.05 K	0.16
in acetone, 329.35 K	0.172
in acetonitrile, 289.05 K	0.0144
in acetonitrile, 293.15 K	0.0164
in acetonitrile, 299.15 K	0.02
in acetonitrile, 303.95 K	0.0237
in acetonitrile, 308.95 K	0.0283
in acetonitrile, 313.65 K	0.0328
in acetonitrile, 318.65 K	0.038
in acetonitrile, 324.05 K	0.0446
in acetonitrile, 329.35 K	0.0533
in acetonitrile, 334.15 K	0.0604
in ethanol, 296.95 K	0.0109
in ethanol, 302.45 K	0.012
in ethanol, 308.55 K	0.014
in ethanol, 313.15 K	0.0154
in ethanol, 318.25 K	0.0173
in ethanol, 323.25 K	0.0187
in ethanol, 329.05 K	0.0217
in ethanol, 334.05 K	0.0249
in ethanol, 338.55 K	0.0274
in ethyl acetate, 289.05 K	0.0634
in ethyl acetate, 293.15 K	0.0694
in ethyl acetate, 299.15 K	0.0761
in ethyl acetate, 303.95 K	0.0814
in ethyl acetate, 308.95 K	0.0879
in ethyl acetate, 313.65 K	0.0951
in ethyl acetate, 318.65 K	0.101
in ethyl acetate, 324.05 K	0.11
in ethyl acetate, 329.35 K	0.119
in ethyl acetate, 334.15 K	0.128
in isopropanol, 296.95 K	0.00786
in isopropanol, 302.45 K	0.00963
in isopropanol, 308.55 K	0.0115
in isopropanol, 313.15 K	0.0125
in isopropanol, 318.25 K	0.0148
in isopropanol, 323.25 K	0.0168
in isopropanol, 329.05 K	0.0185
in isopropanol, 334.05 K	0.0218
in isopropanol, 338.55 K	0.0233
in methanol, 296.95 K	0.00571
in methanol, 302.45 K	0.00709
in methanol, 308.55 K	0.00835
in methanol, 313.15 K	0.00941
in methanol, 318.25 K	0.0107
in methanol, 323.25 K	0.0119
in methanol, 329.05 K	0.0136
in methanol, 334.05 K	0.016
in methanol, 338.55 K	0.017
in n-butanol, 296.95 K	0.0123
in n-butanol, 302.45 K	0.0141
in n-butanol, 308.55 K	0.0163
in n-butanol, 313.15 K	0.0181
in n-butanol, 318.25 K	0.0212
in n-butanol, 323.25 K	0.0241
in n-butanol, 329.05 K	0.0276
in n-butanol, 334.05 K	0.0311
in n-butanol, 338.55 K	0.0357
in n-propanol, 296.95 K	0.0104
in n-propanol, 302.45 K	0.012
in n-propanol, 308.55 K	0.0134
in n-propanol, 313.15 K	0.0156
in n-propanol, 318.25 K	0.0177
in n-propanol, 323.25 K	0.0206
in n-propanol, 329.05 K	0.0233
in n-propanol, 334.05 K	0.0269
in n-propanol, 338.55 K	0.03
in sec-butanol, 296.95 K	0.00879
in sec-butanol, 302.45 K	0.0111
in sec-butanol, 308.55 K	0.014
in sec-butanol, 313.15 K	0.0157
in sec-butanol, 318.25 K	0.0182
in sec-butanol, 323.25 K	0.022
in sec-butanol, 329.05 K	0.0271
in sec-butanol, 334.05 K	0.0307
in sec-butanol, 338.55 K	0.0353
in toluene, 289.05 K	0.00911
in toluene, 293.15 K	0.0101
in toluene, 299.15 K	0.0122
in toluene, 303.95 K	0.0141
in toluene, 308.95 K	0.0167
in toluene, 313.65 K	0.0191
in toluene, 318.65 K	0.0222
in toluene, 324.05 K	0.0255
in toluene, 329.35 K	0.0298
in toluene, 334.15 K	0.0342
